# In patent publication US5162336A, “Tetrahydro-pyrido-indoles as cholecystokinin and gastrin antagonists” (Rhone-Poulenc Rorer Pharmaceuticals Inc., priority 1990, dated 1992):
# Target: T1, Gastrin receptor (Cavia porcellus, UniProt H0VZC5)
# T1 construct: The fundic mucosa is gently scraped off the submucosa; from tissue; host or cells: gastric glands from fundic mucosa of Hartley guinea pig
# T1 sequence (H0VZC5 1-426): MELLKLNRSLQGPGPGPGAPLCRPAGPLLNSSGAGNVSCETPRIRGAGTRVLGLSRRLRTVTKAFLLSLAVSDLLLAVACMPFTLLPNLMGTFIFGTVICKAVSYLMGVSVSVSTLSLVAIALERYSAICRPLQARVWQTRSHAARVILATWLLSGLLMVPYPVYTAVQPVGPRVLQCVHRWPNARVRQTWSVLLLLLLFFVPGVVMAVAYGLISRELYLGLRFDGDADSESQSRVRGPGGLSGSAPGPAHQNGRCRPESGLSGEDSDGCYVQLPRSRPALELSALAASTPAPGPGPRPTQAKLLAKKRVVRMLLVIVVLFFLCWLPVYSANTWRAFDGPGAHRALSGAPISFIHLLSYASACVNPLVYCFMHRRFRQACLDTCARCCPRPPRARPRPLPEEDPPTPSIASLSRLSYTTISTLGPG
# Experiment: Gastrin receptor binding assay (displacement of 125I-(Leu-15)-Gastrin from guinea pig fundic glands)
# Set-up: species or system guinea pig (Hartley Strain)
# Settings: guinea pig fundic mucosa glands, 25° C., 30 min, read-out: In vitro Binding Data IC50 Gastrin
# Procedure: (a) Phosphate Buffered Saline (PBS): 8.743 g NaCl, 523 mg K2 HPO4 and 76.8 mg NaH2 PO4 is dissolved in 1.0 liter of deionized water and the pH of the solution is adjusted to 7.3 with 5N NaOH.
# (b) Buffer A: While adding Basal Medium Eagle (BME) containing Earle's Salts, L-glutamine and 25 mM HEPES, 3 liters of deionized water is stirred, followed by the addition and dissolution of […] of sodium bicarbonate. The solution is then equilibrated with 95% O2 /5% CO2 gas followed by titration to a pH of 7.4 with NaOH.
# (c) Buffer B: 18.75 mg of collagenase and […] of BSA is dissolved in 25 ml of Buffer A.
# (d) Buffer C: 0.3 g of BSA is dissolved in 300 ml of Buffer A.
# (e) 6.25 mg Bacitracin is dissolved in 25 ml of Buffer A.
# (f) ^125 I-(Leu-15)-Gastrin: 100 microcurie dissolved in 2.0 ml of Buffer A to make 50 microcurie/ml.
# (g) ^125 I-(15-methionine)-Human Gastrin: 50 microcurie/ml.
# (h) (Leu 15)-Gastrin: 5.2 mg of (Leu-15)- Gastrin is dissolved in 10 ml of Buffer A. At the time of assay 1:10 dilution is made and 10 μl assay tube is used.
# A guinea pig (Hartley Strain) weighing 150-200 grams, is sacrificed by CO2 asphyxiation and the stomach immediately excised, cut along the greater curvature, cleaned out and immediately immersed in a beaker containing cold PBS, pH 7.3, to insure thorough cleaning. The fundic mucosa is gently scraped off the submucosa and added to a preweighed 50 ml plastic centrifuge tube containing 30 ml of cold Buffer A. The weight of the plastic centrifuge tube containing the buffer is then subtracted from the combined weight of the mucosa and the buffer-containing tube to give the weight of the mucosa. The weight of the mucosa thus determined is recorded for later calculations.
# The mucosa is then washed twice in Buffer A. After the final wash, the tissue is minced and is placed in a 100-ml glass beaker containing about 1.0 ml of Buffer A, and washed twice again by repeated centrifugation at 50×g for 5 minutes each and aspiration of supernatant. The washed tissue fragments are then added to a glass Erlenmeyer flask containing 25 ml of Buffer B and incubated in a Dubnoff shaking water bath at 37° C. for 30 minutes in a 95% O2 - 5% CO2 atmosphere. After the incubation, the digested tissue fragments in the Collegenase-buffer solution are triturated, filtered through a 200-micron nylon mesh and centrifuged at 50×g for 5 minutes. The supernatant is aspirated and discarded, the tissue washed 2× in Buffer C, resuspended in same buffer, incubated in a 37° C. water bath in an atmosphere of 95% O2 - 5% CO2 for 5 minutes, and centrifuged. The pelleted glands are suspended in Buffer D at a desired concentration of 2x10^5 glands/ml to use in the receptor binding assay.
# Six minisorp tubes (16×100 mm) are serially marked and divided into two groups thus: tubes #1, #2, and #3 are marked "T" for "Totals" and tubes #4, #5, and #6 are marked "NS" for "Non-Specifics." Into each of the six tubes are added 220 μl of prepared glands in Buffer D; 20 μl of Buffer A in tubes #1, #2, and #3; 10 μl, in tubes #4, #5 and #6; (10μ of (Leu-15)-Gastrin (25 μM) in tubes #4, #5, and #6. The six tubes are then transferred immediately to a 25° C. water bath and challenged each with 10 μl ^125 I-(Leu-15)-Gastrin diluted as per calculation. The tubes are then covered with a gas hood connected to a 95% O2 - 5% CO2 gas source and mechanically agitated in a shaker for 30 minutes.
# At the end of the incubation period, the assay mixtures are each filtered through a Whatman glass fiber filter B on a Brandel tissue harvester and washed twice with Buffer A. The filters are pre-soaked in Buffer C before use. The filter strips are removed after the final wash and individual filters counted in a Gamma Counter. The counts from the "Non-Specific" tubes are then averaged and subtracted from the average "Totals" to give the Specific Counts. […]
row,IC50 [µM],SMILES
1,0.91,CC(C)C[C@H](NC(=O)[C@H]1Cc2c([nH]c3ccccc23)CN1C(=O)Nc1ccc(Cl)c(Cl)c1)C(=O)NCC(N)=O [Example 28]
2,0.23,"Cc1cccc(NC(=O)N2Cc3[nH]c4ccccc4c3C[C@@H]2C(=O)N[C@@H](CC(C)C)C(N)=O)c1 [Example 39, N-[(3R)-2-(3-methylphenylcarbamoyl)-1,2,3,4-tetrahydro-9H-pyrido[3,4-b]indole-3-carboxy]-L-leucinamide]"
3,6,CC(C)C[C@H](NC(=O)[C@H]1Cc2c([nH]c3ccccc23)CN1)C(=O)N[C@@H](CC(=O)OCc1ccccc1)C(N)=O [Example 40]
4,10,Cc1cccc(NC(=O)N2Cc3[nH]c4ccccc4c3C[C@@H]2C(=O)N[C@@H](CC(C)C)C(=O)N[C@@H](Cc2ccccc2)C(N)=O)c1 [Example 42]
5,30,CCOC(=O)c1ccc(NC(=O)[C@H]2Cc3c([nH]c4ccccc34)CN2C(=O)Nc2cccc(C)c2)cc1 [Example 43]
6,2.2,"Cc1cccc(NC(=O)N2Cc3[nH]c4ccccc4c3C[C@@H]2C(=O)N2CCC[C@H]2C(=O)N[C@@H](CC(=O)O)C(N)=O)c1 [Example 44, N-[(3R)-2-(3-methylphenylcarbamoyl)-1,2,3,4-tetrahydro-9H-pyrido[3,4-b]indole-3-carboxyl]-L-prolyl-L-aspartic acid amide]"
7,> 10,Cc1cccc(NC(=O)N2Cc3[nH]c4ccccc4c3C[C@@H]2C(=O)N[C@H](CC(C)C)C(=O)N[C@H](CC(=O)O)C(N)=O)c1 [Example 45]
8,2.6,"CCCCCN(CCCCC)C(=O)[C@H](CC(=O)O)NC(=O)[C@H]1Cc2c([nH]c3ccccc23)CN1C(=O)Nc1cccc(C)c1 [Example 46, N-[(3R)-2-(3-methylphenylcarbamoyl)-1,2,3,4-tetrahydro-9H-pyrido[3,4-b]indole-3-carboxyl]-L-aspartic acid dipentyl amide]"
9,0.9,Cc1cccc(NC(=O)N2Cc3[nH]c4ccccc4c3C[C@H]2C(=O)N[C@H](CC(C)C)C(=O)N[C@H](CC(=O)O)C(N)=O)c1 [Example 49]
10,12,Cc1cccc(NC(=O)N2Cc3[nH]c4ccccc4c3C[C@@H]2C(=O)N[C@@H](CC(C)C)C(=O)N[C@@H](CC(N)=O)C(=O)O)c1 [Example 50]
11,17,"Cc1cccc(NC(=O)N2Cc3[nH]c4ccccc4c3C[C@@H]2C(=O)N[C@@H](CC(C)C)C(=O)N[C@H](CC(=O)O)C(N)=O)c1 [Example 51, N-[(3R)-2-(3-methylphenylcarbamoyl)-1,2,3,4-tetrahydro-9H-pyrido[3,4-b]indole-3-carboxyl]-L-leucyl-D-aspartic acid amide]"
12,> 30,Cc1cccc(NC(=O)N2Cc3[nH]c4ccccc4c3C[C@H]2C(=O)N[C@H](CC(C)C)C(=O)N[C@@H](CC(=O)O)C(N)=O)c1 [Example 52]
13,6,"Cc1cccc(NC(=O)N2Cc3[nH]c4ccccc4c3C[C@@H]2C(=O)N(C)[C@@H](CC(C)C)C(=O)N[C@@H](CC(=O)O)C(N)=O)c1 [Example 53, N-[(3R)-2-(3-methylphenylcarbamoyl)-1,2,3,4-tetrahydro-9H-pyrido[3,4-b]indole-3-carboxyl]N'-methyl-L-leucine-L-aspartic acid amide]"
14,6.8,Cc1cccc(C(=O)N2Cc3[nH]c4ccccc4c3C[C@@H]2C(=O)N[C@@H](CC(C)C)C(=O)N[C@@H](CC(=O)O)C(N)=O)c1 [Example 54]
15,3.3,"CC(C)C[C@H](NC(=O)[C@H]1Cc2c([nH]c3ccccc23)CN1C(=O)Nc1ccc(Cl)cc1)C(=O)N[C@@H](CC(=O)O)C(N)=O [Example 55, N-[(3R)-2-(4-chlorophenylcarbamoyl)-1,2,3,4-tetrahydro-9H-pyrido[3,4-b]indole-3-carboxyl]-L-leucyl-L-asartic acid amide]"
16,> 30,"Cc1cccc(NC(=O)N2Cc3[nH]c4ccccc4c3C[C@@H]2C(=O)NCC(=O)N[C@@H](CC(=O)O)C(N)=O)c1 [Example 56, N-[(3R)-2-(3-methylphenylcarbamoyl)-1,2,3,4-tetrahydro-9H-pyido[3,4-b]indole-3-carboxyl]glycyl-L-aspartic acid amide]"
17,22,"Cc1cccc(NC(=O)N2Cc3[nH]c4ccccc4c3C[C@@H]2C(=O)N[C@H](CC(C)C)C(=O)N[C@@H](CC(=O)O)C(N)=O)c1 [Example 57, N-[(3R)-2-(3-methylphenylcarbamoyl)-1,2,3,4-tetrahydro-9H-pyrido[3,4-b]indole-3-carboxyl]-D-leucyl-L-aspartic acid amide]"
18,18,Cc1cccc(NC(=O)N2Cc3[nH]c4ccccc4c3C[C@@H]2C(=O)N[C@@H](C)C(=O)N[C@@H](CC(=O)O)C(N)=O)c1 [Example 58]
19,2,"CC(C)C[C@H](NC(=O)[C@H]1Cc2c([nH]c3ccccc23)CN1C(=O)Nc1cc(Cl)cc(Cl)c1)C(=O)N[C@@H](CC(=O)O)C(N)=O [Example 59, N-[(3R)-2-(3,5-dichlorophenylcarbamoyl)-1,2,3,4-tetrahydro-9H-pyrido[3,4-b]indole-3-carboxyl]-L-leucyl-L-aspartic acid amide]"
20,15,"Cc1cc(C)cc(NC(=O)N2Cc3[nH]c4ccccc4c3C[C@@H]2C(=O)N[C@@H](CC(C)C)C(=O)N[C@@H](CC(=O)O)C(N)=O)c1 [Example 60, N-[(3R)-2-(3,5-dimethylphenylcarbamoyl)-1,2,3,4-tetrahydro-9H-pyrido[3,4-b]indole-3-carboxyl]-L-leucyl-L-aspartic acid amide]"
21,6.4,COc1cccc(NC(=O)N2Cc3[nH]c4ccccc4c3C[C@@H]2C(=O)N[C@@H](CC(C)C)C(=O)N[C@@H](CC(=O)O)C(N)=O)c1 [Example 61]
22,1.2,CC(C)C[C@H](NC(=O)[C@H]1Cc2c([nH]c3ccccc23)CN1C(=O)Nc1ccc2ccccc2c1)C(=O)N[C@@H](CC(=O)O)C(N)=O [Example 62]
23,4.1,CC(C)C[C@H](NC(=O)[C@H]1Cc2c([nH]c3ccccc23)CN1C(=O)Nc1cccc(C(F)(F)F)c1)C(=O)N[C@@H](CC(=O)O)C(N)=O [Example 63]
24,5.3,Cc1cccc(NC(=O)N2Cc3[nH]c4ccccc4c3C[C@@H]2C(=O)N[C@@H](COCc2ccccc2)C(=O)N[C@@H](CC(=O)O)C(N)=O)c1 [Example 64]
25,7.3,CC(C)C[C@H](NC(=O)[C@H]1Cc2c([nH]c3ccccc23)CN1C(=O)Nc1cccc(F)c1)C(=O)N[C@@H](CC(=O)O)C(N)=O [Example 65]
26,0.54,CC(C)C[C@H](NC(=O)[C@H]1Cc2c([nH]c3ccccc23)CN1C(=O)Nc1ccc(Cl)c(Cl)c1)C(=O)N[C@@H](CC(=O)O)C(N)=O [Example 66]
